Measured values as given in patent US4228292A, “N-Substituted benzothiazolines and benzoxazolines and their use as herbicides and plant growth regulants” (Monsanto Company, priority 1978, dated 1980).

Experiments:
Assay type in all cases: in vivo
Sugar Beet [1] = experiment: pre-emergent herbicidal test; conditions: M, 4 WAT
Description: (§1) The pre-emergent test was conducted as follows:
(§2) A good grade of top soil was placed in aluminum pans and compactd to a depth of 0.95 to 1.27 cm. from the top of the pan. On the top of the soil was placed a predetermined number of seeds or vegetative propagules of various plant species. The soil required to level fill the pans after seeding or adding vegetative propagules was weighed into a pan. A known amount of the herbicidal active ingredient applied in a solvent or as a wettable powder and the soil were thoroughly mixed, and used as a cover layer for prepared pans. After treatment the pans were moved into a greenhouse bench where they were watered from below as needed to give adequate moisture for germination and growth.
(§3) A herbicidal rating code was used to signify the extent of phytotoxicity of each species. The ratings are defined as follows: […]

Wheat [2] = experiment: pre-emergent herbicidal test; conditions: N, 4 WAT
Description: as §1, §2, §3

Hemp Sesbania [3] = experiment: pre-emergent herbicidal test; conditions: R, 4 WAT
Description: as §1, §2, §3

Sorghum [4] = experiment: pre-emergent herbicidal test; conditions: P, 4 WAT
Description: as §1, §2, §3

Crabgrass [5] = experiment: pre-emergent herbicidal test; conditions: T, 4 WAT
Description: as §1, §2, §3

Rice [6] = experiment: pre-emergent herbicidal test; conditions: O, 4 WAT
Description: as §1, §2, §3

Soybean [7] = experiment: pre-emergent herbicidal test; conditions: L, 4 WAT
Description: as §1, §2, §3

Panicum Spp [8] = experiment: pre-emergent herbicidal test; conditions: S, 4 WAT
Description: as §1, §2, §3

Wild Buckwheat [9] = experiment: pre-emergent herbicidal test; conditions: Q, 4 WAT
Description: as §1, §2, §3

Sugar Beet [10] = experiment: post-emergent herbicidal test; conditions: M
Description: (§4) The post-emergent tests were conducted as follows:
(§5) The herbicidal active ingredients are applied in spray form to two or three-week old specimens of various plant species. The spray, a solution or wettable powder suspension containing the appropriate rate of herbicidal active ingredient to give the desired test rate and a surfactant, is applied to the plants. The treated plants are placed in a greenhouse and approximately two or four weeks later the effects are observed and recorded. The results are shown in Tables IX and X in which the post-emergent herbicidal rating code is as follows: […]

Wheat [11] = experiment: post-emergent herbicidal test; conditions: N
Description: as §4, §5

Hemp Sesbania [12] = experiment: post-emergent herbicidal test; conditions: R
Description: as §4, §5

Sorghum [13] = experiment: post-emergent herbicidal test; conditions: P
Description: as §4, §5

Crabgrass [14] = experiment: post-emergent herbicidal test; conditions: T
Description: as §4, §5

Rice [15] = experiment: post-emergent herbicidal test; conditions: O
Description: as §4, §5

Soybean [16] = experiment: post-emergent herbicidal test; conditions: L
Description: as §4, §5

Panicum Spp [17] = experiment: post-emergent herbicidal test; conditions: S
Description: as §4, §5

Wild Buckwheat [18] = experiment: post-emergent herbicidal test; conditions: Q
Description: as §4, §5
Also: ranges in brackets are in %.

For `CCOC(=N)Cn1c(=O)sc2ccccc21` [Compound 12], the pre-emergent herbicidal rating (Sugar Beet [1]; 1.12 kg/h) was 3 (75-100), the pre-emergent herbicidal rating (Sugar Beet [1]; 5.6 kg/h) was 3 (75-100) and the pre-emergent herbicidal rating (Wheat [2]; 1.12 kg/h) was 0 (0-24). The pre-emergent herbicidal rating (Wheat [2]; 5.6 kg/h) was 1 (25-49), the pre-emergent herbicidal rating (Hemp Sesbania [3]; 1.12 kg/h) was 1 (25-49) and the pre-emergent herbicidal rating (Hemp Sesbania [3]; 5.6 kg/h) was 2 (50-74). For the same compound, the pre-emergent herbicidal rating (Sorghum [4]; 1.12 kg/h) was 0 (0-24), the pre-emergent herbicidal rating (Sorghum [4]; 5.6 kg/h) was 0 (0-24) and the pre-emergent herbicidal rating (Crabgrass [5]; 1.12 kg/h) was 0 (0-24). The pre-emergent herbicidal rating (Crabgrass [5]; 5.6 kg/h) was 0 (0-24), the pre-emergent herbicidal rating (Rice [6]; 1.12 kg/h) was 0 (0-24) and the pre-emergent herbicidal rating (Rice [6]; 5.6 kg/h) was 0 (0-24). The pre-emergent herbicidal rating (Soybean [7]; 1.12 kg/h) was 1 (25-49), the pre-emergent herbicidal rating (Soybean [7]; 5.6 kg/h) was 2 (50-74) and the pre-emergent herbicidal rating (Panicum Spp [8]; 1.12 kg/h) was 0 (0-24). For the same compound, the pre-emergent herbicidal rating (Panicum Spp [8]; 5.6 kg/h) was 0 (0-24), the pre-emergent herbicidal rating (Wild Buckwheat [9]; 1.12 kg/h) was 1 (25-49) and the pre-emergent herbicidal rating (Wild Buckwheat [9]; 5.6 kg/h) was 1 (25-49). For the same compound, the post-emergent herbicidal rating (Sugar Beet [10]; 0.28 kg/h, 4 WAT) was 1 (25-49), the post-emergent herbicidal rating (Sugar Beet [10]; 1.12 kg/h, 4 WAT) was 2 (50-74) and the post-emergent herbicidal rating (Sugar Beet [10]; 5.6 kg/h, 4 WAT) was 3 (75-99). The post-emergent herbicidal rating (Wheat [11]; 0.28 kg/h, 4 WAT) was 0 (0-24), the post-emergent herbicidal rating (Wheat [11]; 1.12 kg/h, 4 WAT) was 0 (0-24) and the post-emergent herbicidal rating (Wheat [11]; 5.6 kg/h, 4 WAT) was 1 (25-49). For the same compound, the post-emergent herbicidal rating (Hemp Sesbania [12]; 0.28 kg/h, 4 WAT) was 1 (25-49), the post-emergent herbicidal rating (Hemp Sesbania [12]; 1.12 kg/h, 4 WAT) was 2 (50-74) and the post-emergent herbicidal rating (Hemp Sesbania [12]; 5.6 kg/h, 4 WAT) was 3 (75-99). For the same compound, the post-emergent herbicidal rating (Sorghum [13]; 0.28 kg/h, 4 WAT) was 0 (0-24), the post-emergent herbicidal rating (Sorghum [13]; 1.12 kg/h, 4 WAT) was 0 (0-24) and the post-emergent herbicidal rating (Sorghum [13]; 5.6 kg/h, 4 WAT) was 0 (0-24). The post-emergent herbicidal rating (Crabgrass [14]; 0.28 kg/h, 4 WAT) was 0 (0-24), the post-emergent herbicidal rating (Crabgrass [14]; 1.12 kg/h, 4 WAT) was 0 (0-24) and the post-emergent herbicidal rating (Crabgrass [14]; 5.6 kg/h, 4 WAT) was 0 (0-24). For the same compound, the post-emergent herbicidal rating (Rice [15]; 0.28 kg/h, 4 WAT) was 0 (0-24), the post-emergent herbicidal rating (Rice [15]; 1.12 kg/h, 4 WAT) was 0 (0-24) and the post-emergent herbicidal rating (Rice [15]; 5.6 kg/h, 4 WAT) was 0 (0-24). For the same compound, the post-emergent herbicidal rating (Soybean [16]; 0.28 kg/h, 4 WAT) was 1 (25-49), the post-emergent herbicidal rating (Soybean [16]; 1.12 kg/h, 4 WAT) was 1 (25-49) and the post-emergent herbicidal rating (Soybean [16]; 5.6 kg/h, 4 WAT) was 2 (50-74). The post-emergent herbicidal rating (Panicum Spp [17]; 0.28 kg/h, 4 WAT) was 0 (0-24), the post-emergent herbicidal rating (Panicum Spp [17]; 1.12 kg/h, 4 WAT) was 0 (0-24) and the post-emergent herbicidal rating (Panicum Spp [17]; 5.6 kg/h, 4 WAT) was 0 (0-24). The post-emergent herbicidal rating (Wild Buckwheat [18]; 0.28 kg/h, 4 WAT) was 1 (25-49), the post-emergent herbicidal rating (Wild Buckwheat [18]; 1.12 kg/h, 4 WAT) was 2 (50-74) and the post-emergent herbicidal rating (Wild Buckwheat [18]; 5.6 kg/h, 4 WAT) was 3 (75-99).
`COC(=N)Cn1c(=O)sc2ccccc21` [Compound 24] was tested, and the pre-emergent herbicidal rating (Sugar Beet [1]; 1.12 kg/h) was 1 (25-49), the pre-emergent herbicidal rating (Sugar Beet [1]; 5.6 kg/h) was 3 (75-100) and the pre-emergent herbicidal rating (Wheat [2]; 1.12 kg/h) was 1 (25-49). The pre-emergent herbicidal rating (Wheat [2]; 5.6 kg/h) was 1 (25-49), the pre-emergent herbicidal rating (Hemp Sesbania [3]; 1.12 kg/h) was 1 (25-49) and the pre-emergent herbicidal rating (Hemp Sesbania [3]; 5.6 kg/h) was 3 (75-100). The pre-emergent herbicidal rating (Sorghum [4]; 1.12 kg/h) was 0 (0-24), the pre-emergent herbicidal rating (Sorghum [4]; 5.6 kg/h) was 0 (0-24) and the pre-emergent herbicidal rating (Crabgrass [5]; 1.12 kg/h) was 0 (0-24). The pre-emergent herbicidal rating (Crabgrass [5]; 5.6 kg/h) was 1 (25-49), the pre-emergent herbicidal rating (Rice [6]; 1.12 kg/h) was 0 (0-24) and the pre-emergent herbicidal rating (Rice [6]; 5.6 kg/h) was 1 (25-49). The pre-emergent herbicidal rating (Soybean [7]; 1.12 kg/h) was 2 (50-74), the pre-emergent herbicidal rating (Soybean [7]; 5.6 kg/h) was 3 (75-100) and the pre-emergent herbicidal rating (Panicum Spp [8]; 1.12 kg/h) was 0 (0-24). For the same compound, the pre-emergent herbicidal rating (Panicum Spp [8]; 5.6 kg/h) was 0 (0-24), the pre-emergent herbicidal rating (Wild Buckwheat [9]; 1.12 kg/h) was 1 (25-49) and the pre-emergent herbicidal rating (Wild Buckwheat [9]; 5.6 kg/h) was 3 (75-100). The post-emergent herbicidal rating (Sugar Beet [10]; 0.056 kg/h, 2 WAT) was 1 (25-49), the post-emergent herbicidal rating (Sugar Beet [10]; 0.28 kg/h, 4 WAT) was 1 (25-49) and the post-emergent herbicidal rating (Sugar Beet [10]; 1.12 kg/h, 4 WAT) was 2 (50-74). The post-emergent herbicidal rating (Sugar Beet [10]; 5.6 kg/h, 4 WAT) was 3 (75-99), the post-emergent herbicidal rating (Wheat [11]; 0.056 kg/h, 2 WAT) was 0 (0-24) and the post-emergent herbicidal rating (Wheat [11]; 0.28 kg/h, 4 WAT) was 0 (0-24). For the same compound, the post-emergent herbicidal rating (Wheat [11]; 1.12 kg/h, 4 WAT) was 0 (0-24), the post-emergent herbicidal rating (Wheat [11]; 5.6 kg/h, 4 WAT) was 1 (25-49) and the post-emergent herbicidal rating (Hemp Sesbania [12]; 0.056 kg/h, 2 WAT) was 0 (0-24). For the same compound, the post-emergent herbicidal rating (Hemp Sesbania [12]; 0.28 kg/h, 4 WAT) was 1 (25-49), the post-emergent herbicidal rating (Hemp Sesbania [12]; 1.12 kg/h, 4 WAT) was 2 (50-74) and the post-emergent herbicidal rating (Hemp Sesbania [12]; 5.6 kg/h, 4 WAT) was 4 (100). The post-emergent herbicidal rating (Sorghum [13]; 0.056 kg/h, 2 WAT) was 0 (0-24), the post-emergent herbicidal rating (Sorghum [13]; 0.28 kg/h, 4 WAT) was 0 (0-24) and the post-emergent herbicidal rating (Sorghum [13]; 1.12 kg/h, 4 WAT) was 1 (25-49). The post-emergent herbicidal rating (Sorghum [13]; 5.6 kg/h, 4 WAT) was 1 (25-49), the post-emergent herbicidal rating (Crabgrass [14]; 0.056 kg/h, 2 WAT) was 0 (0-24) and the post-emergent herbicidal rating (Crabgrass [14]; 0.28 kg/h, 4 WAT) was 0 (0-24). For the same compound, the post-emergent herbicidal rating (Crabgrass [14]; 1.12 kg/h, 4 WAT) was 0 (0-24), the post-emergent herbicidal rating (Crabgrass [14]; 5.6 kg/h, 4 WAT) was 0 (0-24) and the post-emergent herbicidal rating (Rice [15]; 0.056 kg/h, 2 WAT) was 0 (0-24). For the same compound, the post-emergent herbicidal rating (Rice [15]; 0.28 kg/h, 4 WAT) was 0 (0-24), the post-emergent herbicidal rating (Rice [15]; 1.12 kg/h, 4 WAT) was 1 (25-49) and the post-emergent herbicidal rating (Rice [15]; 5.6 kg/h, 4 WAT) was 0 (0-24). The post-emergent herbicidal rating (Soybean [16]; 0.056 kg/h, 2 WAT) was 1 (25-49), the post-emergent herbicidal rating (Soybean [16]; 0.28 kg/h, 4 WAT) was 1 (25-49) and the post-emergent herbicidal rating (Soybean [16]; 1.12 kg/h, 4 WAT) was 2 (50-74). For the same compound, the post-emergent herbicidal rating (Soybean [16]; 5.6 kg/h, 4 WAT) was 2 (50-74), the post-emergent herbicidal rating (Panicum Spp [17]; 0.056 kg/h, 2 WAT) was 0 (0-24) and the post-emergent herbicidal rating (Panicum Spp [17]; 0.28 kg/h, 4 WAT) was 0 (0-24). For the same compound, the post-emergent herbicidal rating (Panicum Spp [17]; 1.12 kg/h, 4 WAT) was 0 (0-24), the post-emergent herbicidal rating (Panicum Spp [17]; 5.6 kg/h, 4 WAT) was 0 (0-24) and the post-emergent herbicidal rating (Wild Buckwheat [18]; 0.056 kg/h, 2 WAT) was 1 (25-49). For the same compound, the post-emergent herbicidal rating (Wild Buckwheat [18]; 0.28 kg/h, 4 WAT) was 1 (25-49), the post-emergent herbicidal rating (Wild Buckwheat [18]; 1.12 kg/h, 4 WAT) was 4 (100) and the post-emergent herbicidal rating (Wild Buckwheat [18]; 5.6 kg/h, 4 WAT) was 4 (100).
